In patent US8546380B2, “Aminodihydrothiazine derivatives” (Shionogi & Co., Ltd., priority 2005, dated 2013):
Like-named read-outs stand apart in the source and are kept apart here.

Columns and labels:
[1] = biological target: recombinant human BACE-1 protein (Homo sapiens (Human), UniProt P56817); test: Measurement of Inhibition of β-Secretase Activity; assay type: biochemical; conditions: 3 h at 30° C., pH5.0, read-out: IC50 value
Outline: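 Recombinant human BACE-1 incubated with compound and Eu-cryptate-labelled biotinylated peptide substrate 3 h at 30° C in 50 mM sodium acetate pH 5.0, 0.008% Triton X-100. Streptavidin-XL665 in KF-containing phosphate buffer pH 7.0 then added, 1 h at 30° C, for time-resolved FRET read-out.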

[2] = fluorescence-quenched peptide substrate 18 nM, BACE-1 7.4 nM
[3] = recombinant human BACE-1 protein

Sequence of recombinant human BACE-1 protein (P56817 46-501): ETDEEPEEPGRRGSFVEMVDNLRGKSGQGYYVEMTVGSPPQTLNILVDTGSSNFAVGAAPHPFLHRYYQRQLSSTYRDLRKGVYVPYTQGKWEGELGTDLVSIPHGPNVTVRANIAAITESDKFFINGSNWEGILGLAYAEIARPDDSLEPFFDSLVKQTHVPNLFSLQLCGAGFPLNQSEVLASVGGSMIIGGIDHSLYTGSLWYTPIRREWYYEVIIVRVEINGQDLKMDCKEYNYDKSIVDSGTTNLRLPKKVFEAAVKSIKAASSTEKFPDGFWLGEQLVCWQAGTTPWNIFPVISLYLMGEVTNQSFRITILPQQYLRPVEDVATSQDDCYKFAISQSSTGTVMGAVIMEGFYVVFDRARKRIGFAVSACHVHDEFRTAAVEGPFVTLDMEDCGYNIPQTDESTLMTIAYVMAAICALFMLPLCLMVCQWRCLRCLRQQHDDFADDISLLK

IC50 [1, 2] [µM] | melting point | IC50 [1, 3] [µM] | SMILES
< 100 | 182 to 184 °C | – | COc1cnc(C(=O)Nc2cccc(C3(C)CCSC(N)=N3)c2)cn1 (stereo not drawn) [Compound 243]
< 100 | 161 to 165 °C | – | CC1(c2cccc(NC(=O)c3ccc4ccccc4n3)c2)CCSC(N)=N1 (stereo not drawn) [Compound 935]
< 100 | 152 to 153 °C | – | CC1(c2cccc(/C=N/OCc3cccnc3)c2)CCSC(N)=N1 (stereo not drawn) [Compound 584]
< 100 | 156 to 157 °C | – | Cc1ccc2cc(C3(C)CCSC(N)=N3)ccc2c1 (stereo not drawn) [Compound 758]
< 100 | 181 to 182 °C | – | CCC1(c2cccc(NC(=O)c3ccc(Cl)cn3)c2)CCSC(N)=N1 (stereo not drawn) [Compound 380]
< 100 | 178 to 182 °C | – | CC(C)Oc1cnc(C(=O)Nc2cccc(C3(C)CCSC(N)=N3)c2)cn1 (stereo not drawn) [Compound 410]
< 100 | 159 to 163 °C | – | COCc1ccc(C(=O)Nc2cccc(C3(C)CCSC(N)=N3)c2)nc1 (stereo not drawn) [Compound 128]
< 100 | 204 to 205 °C | – | CC1(c2cccc(NC(=O)c3ccc(Cl)cn3)c2Cl)CCSC(N)=N1 (stereo not drawn) [Compound 813]
< 100 | 169 to 170 °C | – | CC1(c2ccc(Oc3ccccc3)cc2)CCSC(N)=N1 (stereo not drawn) [Compound 1055]
< 100 | 205 to 207 °C | – | CC1(c2cccc(SC(=O)c3ncc(Br)cn3)c2)CCSC(N)=N1 (stereo not drawn) [Compound 900]
< 100 | 169 to 172 °C | – | CC1(c2ccc(C(=O)NCc3ccccc3)s2)CCSC(N)=N1 (stereo not drawn) [Compound 1124]
– | 250 to 255 °C (dec.) | 0.912 | COCc1cc(NC(=O)c2ccc(Br)cc2)cc(C2(C)CCSC(N)=N2)c1.Cl (stereo not drawn) [Compound 1197]
– | 91 to 94 °C | 0.278 | Cc1cc(C(=O)Nc2cc(Br)cc(C3(C)CCSC(N)=N3)c2)c(C)o1 (stereo not drawn) [Compound 731]
< 100 | 200 to 202 °C | – | CC1(c2cccc(/C=N/O)c2)CCSC(N)=N1 (stereo not drawn) [Compound 611]
< 100 | 114 to 115 °C | – | CC1(c2ccc(Oc3ccc(F)cc3)cc2)CCSC(N)=N1 (stereo not drawn) [Compound 267]
< 100 | 91 to 96 °C | – | CC1(c2cccc(NC(=O)c3cnccn3)c2)CCSC(N)=N1 (stereo not drawn) [Compound 164]
< 100 | 128 to 131 °C | – | Cc1cc(C(=O)Nc2cccc(C3(C)CCSC(N)=N3)c2)n(C)n1 (stereo not drawn) [Compound 130]
< 100 | 136 to 137 °C | – | CC1(c2ccc(Cl)cc2)CCSC(N)=N1 (stereo not drawn) [Compound 1062]
< 100 | 238 to 239 °C | – | CC1(c2cc(C#N)cc(NC(=O)c3ccc(Cl)cn3)c2)CCSC(N)=N1 (stereo not drawn) [Compound 255]
< 100 | 214 to 217 °C | – | COc1ccc(C2(C)N=C(N)SCC2C)cc1.Cl (stereo not drawn) [Compound 8]
< 100 | 169 to 170 °C | – | COc1ccc(CCCOc2cccc(C3(C)CCSC(N)=N3)c2)cc1.Cl (stereo not drawn) [Compound 936]
< 100 | 173 to 174 °C | – | Cc1ccc(C(=O)Nc2cccc(C3(C)CCSC(N)=N3)c2)nc1 (stereo not drawn) [Compound 528]
< 100 | 212 to 214 °C | – | Cc1cnc(C(=O)Nc2ccc(F)c(C3(C)CCSC(N)=N3)c2)cn1 (stereo not drawn) [Compound 359]
< 100 | 146 to 147 °C | – | CC1(c2cccc(OCCCc3cccnc3)c2)CCSC(N)=N1 (stereo not drawn) [Compound 282]
< 100 | 167 to 169 °C | – | Cc1ccccc1Oc1ccc(C2(C)CCSC(N)=N2)cc1 (stereo not drawn) [Compound 729]
< 100 | 194 to 196 °C | – | CC1(c2ccc(F)c(OCCCc3ccccc3)c2)CCSC(N)=N1.Cl (stereo not drawn) [Compound 1069]
– | 175 to 180 °C (dec.) | 2.56 | CC1(c2cc(Br)cc(NC(=O)c3ccno3)c2)CCSC(N)=N1.Cl (stereo not drawn) [Compound 1132]

IC50 [1, 2] [µM] | melting point | IC50 [1, 3] [µM] | SMILES
< 100 | 132 to 134 °C | – | COc1ccc(C(=O)NCc2cccc(C3(C)CCSC(N)=N3)c2)cc1.Cl (stereo not drawn) [Compound 452]
< 100 | > 300 °C | – | CC1(c2ccc3ccccc3c2)CCNC(N)=N1.O=S(=O)(O)O (stereo not drawn) [Compound 125]
< 100 | 205 to 208 °C | – | CC1(c2cc(NC(=O)c3ncc(Cl)cn3)ccc2F)CCSC(N)=N1 (stereo not drawn) [Compound 204]
< 100 | 100 to 101 °C | – | CC1(c2ccc(F)cc2)CCSC(N)=N1 (stereo not drawn) [Compound 549]
< 100 | 211 to 214 °C | – | CC(=O)Nc1cc(Cl)cnc1C(=O)Nc1cccc(C2(C)CCSC(N)=N2)c1 (stereo not drawn) [Compound 511]
< 100 | 211 to 213 °C | – | CC1(c2cc(NC(=O)c3ccc(C(F)(F)F)cn3)ccc2F)CCSC(N)=N1 (stereo not drawn) [Compound 396]
< 100 | 137 to 138 °C | – | COc1ccc(OCc2cccc(C3(C)CCSC(N)=N3)c2)cc1 (stereo not drawn) [Compound 502]
< 100 | 204 to 206 °C | – | CC1(c2cccc(NC(=O)c3ncc(Cl)cn3)c2)CCSC(N)=N1 (stereo not drawn) [Compound 515]
< 100 | 251 to 254 °C | – | CC1(c2ccc(O)cc2)CCSC(N)=N1.Cl (stereo not drawn) [Compound 413]
– | 209 to 219 °C | 2.5 | CC1(c2cccc(/C=C/C(=O)Nc3ccc(Cl)cn3)c2)CCSC(N)=N1.Cl.Cl (stereo not drawn) [Compound 504]
– | 274 to 283 °C | 0.032 | CC1(c2cc(NC(=O)c3ccc(Cl)cn3)ccc2Cl)CCSC(N)=N1.Cl (stereo not drawn) [Compound 1199]
– | 250 °C (dec.) | 0.505 | Cl.NC1=NC(c2cccc(NC(=O)c3ccc(Cl)cn3)c2)CCS1 (stereo not drawn) [Compound 740]
– | 107 to 109 °C | 1.29 | CC1(c2cccc(NC(=O)c3ccc(Cl)cc3Cl)c2)CCSC(N)=N1 (stereo not drawn) [Compound 625]
< 100 | 187 to 190 °C | – | CC1(c2cc(NC(=O)c3n[nH]c4ccccc34)ccc2F)CCSC(N)=N1 (stereo not drawn) [Compound 241]
< 100 | 122 to 126 °C | – | CN(C)c1cnc(C(=O)Nc2cccc(C3(C)CCSC(N)=N3)c2)cn1 (stereo not drawn) [Compound 302]
< 100 | 155 to 156 °C | – | CC1(c2cc(N)cc(Br)c2)CCSC(N)=N1.Cl.Cl (stereo not drawn) [Compound 588]
< 100 | 139 to 141 °C | – | COc1ccc(C2(C)CCSC(N)=N2)cc1F (stereo not drawn) [Compound 551]
< 100 | 133 to 138 °C | – | CCOC(=O)CCc1cccc(C2(C)CCSC(N)=N2)c1.Cl (stereo not drawn) [Compound 720]
< 100 | 221 to 224 °C | – | CC1(c2cc(F)cc(NC(=O)c3ccc(Cl)cn3)c2)CCSC(N)=N1 (stereo not drawn) [Compound 99]
< 100 | 263 to 266 °C | – | CC1(c2cc(NC(=O)c3ccc(Cl)cn3)cc(C(=O)Nc3ccccc3)c2)CCSC(N)=N1 (stereo not drawn) [Compound 1217]
< 100 | 134 to 140 °C | – | CC1(c2cccc(/C=C/C(=O)Nc3ccccc3)c2)CCSC(N)=N1 (stereo not drawn) [Compound 1109]
< 100 | 189 to 191 °C | – | CC1(c2cccc(NC(=O)c3ccc(N4CCOCC4)cn3)c2)CCSC(N)=N1 (stereo not drawn) [Compound 1131]
< 100 | 126 to 129 °C | – | CC1(c2cccc(COc3ccccc3)c2)CCSC(N)=N1 (stereo not drawn) [Compound 990]
– | 254 to 256 °C | 0.16 | Cc1cc(C(=O)Nc2cc(Br)cc(C3(C)CCSC(N)=N3)c2)c(C)o1.Cl (stereo not drawn) [Compound 436]
< 100 | 181 to 184 °C | – | CC1(c2ccc(C(=O)Nc3ccc(Cl)cn3)s2)CCSC(N)=N1 (stereo not drawn) [Compound 500]
< 100 | 105 to 106 °C | – | CC1(c2cccc(COc3ccc(Cl)cc3)c2)CCSC(N)=N1 (stereo not drawn) [Compound 1028]
< 100 | 224 to 225 °C | – | CC1(c2cc(F)cc(NC(=O)c3ccc(C(F)(F)F)cn3)c2)CCSC(N)=N1 (stereo not drawn) [Compound 178]

SMILES | IC50 [1, 2] [µM] | melting point | IC50 [1, 3] [µM]
Cc1cnc(C(=O)Nc2cccc(C3(C)CCSC(N)=N3)c2)cn1.Cl (stereo not drawn) [Compound 309] | – | 241 to 244 °C | 0.833
CC1(c2cc(Br)cc(NC(=O)c3ccc(Cl)cn3)c2)CCSC(N)=N1.Cl (stereo not drawn) [Compound 165] | – | 246 to 248 °C | 0.0394
COCc1cc(NC(=O)c2ccc(C)cc2)cc(C2(C)CCSC(N)=N2)c1 (stereo not drawn) [Compound 465] | – | 194.6 °C | 3.24
CC1(c2cc(Br)cc(NC(=O)c3nc4ccccc4s3)c2)CCSC(N)=N1.Cl (stereo not drawn) [Compound 570] | – | 186 to 187 °C | 0.149
CC1(c2cccc(OCCCc3ccc(Cl)cc3)c2)CCSC(N)=N1 (stereo not drawn) [Compound 1207] | – | 106 to 108 °C | 4
CC1(c2cccc(NC(=O)c3ccc(C(F)(F)F)cn3)c2)CCSC(N)=N1.Cl (stereo not drawn) [Compound 1244] | – | 268 to 288 °C | 0.13
